Measured values published in patent publication US20240287070A1, “FUSED HETEROCYCLIC DERIVATIVES” (Janssen Sciences Ireland Unlimited Company, priority 2021, published 2024).

Columns and labels:
[1] = system: HBV (HepG2.117 cell line, inducibly HBV producing); experiment: Anti-HBV activity, intracellular HBV DNA by real-time PCR in HepG2.117 cell line; type: cell-based, hepatitis B virus; conditions: HepG2.117 cells, 3 days of treatment
Procedure, shortened: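 HepG2.117 cells (Tet-off, inducible HBV production) were induced to replicate HBV by doxycycline absence, then treated with serially diluted compound for 3 days. Activity was quantified as intracellular HBV DNA by real-time PCR using an HBV-specific primer set and probe.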

HepG2 or HepG2.117 cells = experiment: Cytotoxicity, ATPlite Luminescence Assay; type: cell-based, human; conditions: 3-days incubation unless marked with *
Procedure, shortened: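 Viability after compound treatment is read as ATP luminescence. Exposure lasts 3 or 4 days.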

[2] = Human liver microsome stability; type: in vitro ADME
Procedure, shortened: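 Single incubations with human liver microsomes started with 1 mM NADPH; samples taken at 0, 5, 10, 20, 40 and 60 min, quenched in acetonitrile (1:3). Cassette LC-MS analysis with internal standard; t½ derived from slope of ln peak-area ratio versus time (k = −gradient).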

[3] = pooled human liver microsomes 0.5 mg/mL, 1 μM compound, NADPH 1 mM, 37° C., 0-60 min

SMILES	EC50 [1] [µM]	CC50 (HepG2 or HepG2.117 cells) [µM]	HLM Metabolism t1/2 [2, 3] [h]	HLM Metabolism t1/2 ([2]; human, microsomes) [h]
C[C@@H]1Cc2nn3c(c2CN1C(=O)c1ccc(Cl)c(C(F)(F)F)c1)C(=O)N([C@H](C)c1ccc([S@@]2(=O)=NCCC2)nc1)C[C@H]3C (relative stereo) [Compound 30A, (3R,7R)-2-(4-chloro-3-(trifluoromethyl)benzoyl)-3,7-dimethyl-9-((R*)-1-(6-((R*)-1-oxido-4,5-dihydro-3H-116-isothiazol-1-yl)pyridin-3-yl)ethyl)-1,2,3,4,8,9-hexahydropyrido[4′,3′:3,4]pyrazolo[1,5-a]pyrazin-10(7H)-one]	0.14	> 50	0.495	–
CC(c1ccc(C(F)(F)F)nc1)N1C[C@@H](C)n2nc3c(c2C1=O)CN(C(=O)c1ccc(Cl)c(C#N)c1)[C@H](C)C3 (single isomer, unassigned) [Compound 12B, 2-Chloro-5-((3R,7R)-3,7-dimethyl-10-oxo-9-((S*)-1-(6-(trifluoromethyl)pyridin-3-yl)ethyl)-1,2,3,4,7,8,9,10-octahydropyrido[4′,3′:3,4]pyrazolo[1,5-a]pyrazine-2-carbonyl)benzonitrile]	0.068	> 50	>3	–
C[C@@H]1Cc2nn3c(c2CN1C(=O)c1ccc(Cl)c(C(F)(F)F)c1)C(=O)N([C@H](C)c1ccc([S@]2(=O)=NCCC2)nc1)C[C@H]3C (relative stereo) [Compound 30C, (3R,7R)-2-(4-chloro-3-(trifluoromethyl)benzoyl)-3,7-dimethyl-9-((R*)-1-(6-((S*)-1-oxido-4,5-dihydro-3H-116-isothiazol-1-yl)pyridin-3-yl)ethyl)-1,2,3,4,8,9-hexahydropyrido[4′,3′:3,4]pyrazolo[1,5-a]pyrazin-10(7H)-one]	0.31	> 50	0.685	–
CC(c1ccccn1)N1C[C@@H](C)n2nc3c(c2C1=O)CN(C(=O)c1ccc(Cl)c(Cl)c1)[C@H](C)C3 (single isomer, unassigned) [Compound 65B, (3R,7R)-2-(3,4-dichlorobenzoyl)-3,7-dimethyl-9-((S*)-1-(pyridin-2-yl)ethyl)-1,2,3,4,8,9-hexahydropyrido[4′,3′:3,4]pyrazolo[1,5-a]pyrazin-10(7H)-one]	0.046	> 50	2.02	–
CC(c1cnn(C2CC2)c(=O)c1)N1C[C@@H](C)n2nc3c(c2C1=O)CN(C(=O)c1ccc(Cl)c(C(F)(F)F)c1)[C@H](C)C3 (single isomer, unassigned) [Compound 54B, (3R,7R)-2-(4-chloro-3-(trifluoromethyl)benzoyl)-9-((S*)-1-(1-cyclopropyl-6-oxo-1,6-dihydropyridazin-4-yl)ethyl)-3,7-dimethyl-1,2,3,4,8,9-hexahydropyrido[4′,3′: 3,4]pyrazolo[1,5-a]pyrazin-10(7H)-one]	0.01	> 50	1.95	–
CC(c1ccc(C(C)(C)O)nc1)N1C[C@@H](C)n2nc3c(c2C1=O)CN(C(=O)c1ccc(Cl)c(C#N)c1)[C@H](C)C3 (single isomer, unassigned) [Compound 63B, 2-chloro-5-((3R,7R)-9-((S*)-1-(6-(2-hydroxypropan-2-yl)pyridin-3-yl)ethyl)-3,7-dimethyl-10-oxo-1,2,3,4,7,8,9,10-octahydropyrido[4′,3′:3,4]pyrazolo[1,5-a]pyrazine-2-carbonyl)benzonitrile]	0.052	> 50	>3	–
CC(c1ccc(-n2cncn2)cc1)N1C[C@@H](C)n2nc3c(c2C1=O)CN(C(=O)c1ccc(Cl)c(C#N)c1)[C@H](C)C3 (single isomer, unassigned) [Compound 11B, 5-((3R,7R)-9-((S*)-1-(4-(1H-1,2,4-triazol-1-yl)phenyl)ethyl)-3,7-dimethyl-10-oxo-1,2,3,4,7,8,9,10-octahydropyrido[4′,3′:3,4]pyrazolo[1,5-a]pyrazine-2-carbonyl)-2-chlorobenzonitrile]	0.032	> 50	>3	–
C[C@@H]1Cc2nn3c(c2CN1C(=O)c1ccc(Cl)c(C#N)c1)C(=O)N([C@@H](C)c1ccc(OC(F)F)cc1)C[C@H]3C (relative stereo) [Compound 1D, 2-Chloro-5-((3R,7R*)-9-((S*)-1-(4-(difluoromethoxy)phenyl)ethyl)-3,7-dimethyl-O-oxo-1,2,3,4,7,8,9,10-octahydropyrido[4′,3′:3,4]pyrazolo[1,5-a]pyrazine-2-carbonyl)benzonitrile]	0.021	> 50	–	>3
CC(C)Oc1cc(C(C)N2C[C@@H](C)n3nc4c(c3C2=O)CN(C(=O)c2ccc(Cl)c(C(F)(F)F)c2)[C@H](C)C4)ccn1 (single isomer, unassigned) [Compound 48B, (3R,7R)-2-(4-chloro-3-(trifluoromethyl)benzoyl)-9-((S*)-1-(2-isopropoxypyridin-4-yl)ethyl)-3,7-dimethyl-1,2,3,4,8,9-hexahydropyrido[4′,3′:3,4]pyrazolo[1,5-a]pyrazin-10(7H)-one]	0.028	11.5	1.66	–
CNC(=O)C1(Oc2ccc(C(C)N3C[C@@H](C)n4nc5c(c4C3=O)CN(C(=O)c3ccc(Cl)c(C#N)c3)[C@H](C)C5)cc2)CC1 (single isomer, unassigned) [Compound 13B, 1-(4-((S*)-1-((3R,7R)-2-(4-chloro-3-cyanobenzoyl)-3,7-dimethyl-10-oxo-1,2,3,4,7,8-hexahydropyrido[4′,3′:3,4]pyrazolo[1,5-a]pyrazin-9(10H)-yl)ethyl)phenoxy)-N-methylcyclopropanecarboxamide]	0.091	> 50	2.15	–
C[C@@H]1Cc2nn3c(c2CN1C(=O)c1ccc(Cl)c(C(F)(F)F)c1)C(=O)N([C@@H](C)c1ccc([S@@]2(=O)=NCCC2)nc1)C[C@H]3C (relative stereo) [Compound 30B, (3R,7R)-2-(4-chloro-3-(trifluoromethyl)benzoyl)-3,7-dimethyl-9-((S*)-1-(6-((R*)-1-oxido-4,5-dihydro-3H-116-isothiazol-1-yl)pyridin-3-yl)ethyl)-1,2,3,4,8,9-hexahydropyrido[4′,3′:3,4]pyrazolo[1,5-a]pyrazin-10(7H)-one]	0.074	> 50	0.315	–
CC(c1ccc(C#N)cc1)N1C[C@@H](C)n2nc3c(c2C1=O)CN(C(=O)c1ccc(Cl)c(Cl)c1)[C@H](C)C3 (single isomer, unassigned) [Compound 66B, 4-((S*)-1-((3R,7R)-2-(3,4-dichlorobenzoyl)-3,7-dimethyl-10-oxo-1,3,4,7,8,10-hexahydropyrido[4′,3′:3,4]pyrazolo[1,5-a]pyrazin-9(2H)-yl)ethyl)benzonitrile]	0.017	19.1	>3	–
